Results from paper PMC10361207, “Cannabinoid and Opioid Receptor Affinity and Modulation of Cancer-Related Signaling Pathways of Machaeriols and Machaeridiols from Machaerium Pers” (Molecules, 2023).
Values after ≈ are worked out from the molar mass of the structure shown. Like-named read-outs stand apart in the source and are kept apart here.

How the values were obtained:
[1] = Cytotoxicity, Neutral Red, BT-549; type: cell-based; settings: human, BT-549 breast ductal carcinoma cells, Na = not active up to 50 µg/mL
Protocol: (§1) In vitro cytotoxic activity was determined against five human cancer cell lines—malignant melanoma (SK-MEL), epidermal carcinoma oral (KB), ductal carcinoma breast (BT-549), ovary carcinoma (SKOV-3) and cervical (HeLa) cancer cells—and two non-cancerous kidney cell lines (LLC-PK1 and Vero). All cell lines were obtained from the American Type Culture Collection (ATCC, Rockville, MD, USA). Each assay was performed in 96-well tissue culture-treated microplates. The cells were seeded at a density of 25,000 cells/well and incubated for 24 h. Samples at different concentrations were added, and the cells were incubated again for 48 h. At the end of the incubation, the cell viability was determined using Neutral Red dye according to a modification of the procedure used by Borenfreund et al.. IC50 values were determined from dose–response curves of the percent growth inhibition against test concentrations. Doxorubicin was used as a positive control, while DMSO was used as the negative (vehicle) control.

Wnt = experiment: Luciferase reporter assay, Wnt, HeLa; type: cell-based; settings: Homo sapiens; for IC50: HeLa cells, inducer m-wnt3a, dash: not inhibited by more than 40% at 50 µmol/L
Protocol: (§2) Hela cells (or T98G cells) from ATCC were plated in white opaque 384-well plates at a density of 4300 cells/well in 30 µL of growth medium (DMEM with 10% FBS and 1% Pen/Strep). The next day, the medium was aspirated and replaced with DMEM containing 1% FBS. The cells were transfected with respective plasmids using X-tremeGENE HP DNA transfection reagent (Roche). After 24 h of transfection, the test agents were added to the transfected cells, followed 30 min later by an inducing agent: interleukin 6 (IL-6) for Stat3, TGF-β for Smad, m-wnt3a for Wnt and PMA for AP-1, NF-κB, E2F, Myc, ETS, Notch and Hedgehog. No inducer was added for FoXO and pTK. After 4 h or 6 h of induction, the cells were lysed via the addition of the One-Glo luciferase assay system (Promega; Madison, WI). The light output was detected in a GloMax®-Multi+ Detection System with Instinct® Software (Promega E 8051). This luciferase assay determines if the test agent is able to inhibit the activation of cancer-related signaling pathways. In the case of FoxO, the enhanced luciferase activity via the test agent was assessed.

CB1 receptor = molecular target: T1, CB1 receptor (Homo sapiens, UniProt P21554); experiment: Competitive radioligand binding assay, CB1; settings: 10 μM; [3H]-CP55,940
T1 construct: expressed in transfected cells; host or cells: HEK293 (ATCC), stably transfected; membranes
T1 sequence (P21554 whole entry): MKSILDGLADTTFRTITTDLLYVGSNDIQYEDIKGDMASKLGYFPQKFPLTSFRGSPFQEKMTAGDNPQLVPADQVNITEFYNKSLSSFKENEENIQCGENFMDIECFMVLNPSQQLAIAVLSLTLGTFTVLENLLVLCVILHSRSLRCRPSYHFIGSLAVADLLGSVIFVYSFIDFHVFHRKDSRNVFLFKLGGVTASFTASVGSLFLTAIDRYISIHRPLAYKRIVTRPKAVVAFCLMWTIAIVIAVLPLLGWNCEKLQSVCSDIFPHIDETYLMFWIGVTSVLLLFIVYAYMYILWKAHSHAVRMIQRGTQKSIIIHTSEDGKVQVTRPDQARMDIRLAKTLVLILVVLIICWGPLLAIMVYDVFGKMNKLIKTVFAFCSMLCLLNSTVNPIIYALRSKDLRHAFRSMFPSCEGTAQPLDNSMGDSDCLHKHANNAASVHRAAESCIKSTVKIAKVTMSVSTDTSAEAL
Protocol: (§3) HEK293 cells stably transfected with δ, κ and μ opioid subtypes were a generous gift from Roth Laboratories (University of North Carolina at Chapel Hill, N.C., USA). CB and opioid cells were maintained as previously described.
(§4) Membranes were purified by first washing the cells with cold PBS and scraping the cells into cold 50 mM Tris-HCl, pH 7.4 buffer, which was centrifuged at 5200× g for 10 min at 4 °C; next, the supernatant was discarded, and the pellet was washed with more Tris-HCl buffer, homogenized via a Sonic Dismembrator (Fisher Scientific, Pittsburgh, PA, USA) and then centrifuged at 24,000× g for 40 min at 4 °C. Finally, the pellet was re-suspended in cold 50 mM Tris-HCl buffer, aliquoted into 2 mL vials and stored at −80 °C. The total membrane protein concentration was measured using a Pierce BCA Protein Assay Kit (Thermo Scientific, Rockford, IL, USA) as per the manufacturer’s protocol.
(§5) Cannabinoid and opioid competitive radioligand binding assays were performed as previously described. Saturation experiments were performed for all the receptors to determine the receptor concentration and radioligand dissociation constant (Kd) for the membrane. Percent displacements were evaluated for all the cannabinoid and opioid subtypes with a triplicate of a fixed concentration (10 µg/mL for extracts and fractions and 10 μM for purified compounds). […] Control/test compounds were dissolved in DMSO at 10 μg/mL for extracts and fractions and 10 μM for purified compounds. […] The percent displacement was calculated to represent the ability of the samples to displace the radioligand binding for a given cannabinoid or opioid receptor subtype.
(§6) The percent displacement was calculated as follows: 100−binding of compound−nonspecific binding/specific binding×100
(§7) The competitive binding assays were performed using 12 serial dilutions of each compound ranging from 0.002 to 300 μM (control compounds were serially diluted from 10 μM to 0.06 nM). The cannabinoid assays were incubated for 90 min at 37 °C with gentle agitation. The opioid assays were incubated for 60 min at room temperature. Bound radioligands were collected on GF/C (cannabinoid) or GF/B plates (opioid) and washed 10 times with ice-cold 50 mM Tris-HCl (pH 7.4)/0.1% BSA (cannabinoid) or ice-cold 50 mM Tris-HCl (pH 7.4) (opioid). Radiodetection was measured with 50 µL (cannabinoid) or 25 µL (opioid) of MicroScint^TM-20 on a TopCount NXT HTS Microplate Scintillation Counter (PerkinElmer, Waltham, MA, USA). The IC50 and Ki values were calculated via a non-linear curve fit model using GraphPad Prism 5.0 software (GraphPad Software, Inc., San Diego, CA, USA). Each compound was tested in triplicate unless stated otherwise.

FoxO [2] = experiment: Luciferase reporter assay, FoxO, HeLa; type: cell-based; settings: Homo sapiens, no inducer; for IC50: HeLa cells, dash: no activity detected, read-out: IC50, FoxO (None)
Protocol: as §2

Notch = experiment: Luciferase reporter assay, Notch, HeLa; type: cell-based; settings: Homo sapiens; for IC50: HeLa cells, inducer PMA, dash: not inhibited by more than 40% at 50 µmol/L
Protocol: as §2

[3] = Cytotoxicity, Neutral Red, KB; type: cell-based; settings: human, KB epidermal carcinoma (oral) cells, Na = not active up to 50 µg/mL
Protocol: as §1

CB2 receptor = molecular target: T2, CB2 receptor (Homo sapiens, UniProt P34972); experiment: Competitive radioligand binding assay, CB2; settings: for Percent displacement, CB2: 10 μM, [3H]-CP55,940
T2 construct: expressed in transfected cells; host or cells: HEK293 (ATCC), stably transfected; membranes
T2 sequence (P34972 whole entry): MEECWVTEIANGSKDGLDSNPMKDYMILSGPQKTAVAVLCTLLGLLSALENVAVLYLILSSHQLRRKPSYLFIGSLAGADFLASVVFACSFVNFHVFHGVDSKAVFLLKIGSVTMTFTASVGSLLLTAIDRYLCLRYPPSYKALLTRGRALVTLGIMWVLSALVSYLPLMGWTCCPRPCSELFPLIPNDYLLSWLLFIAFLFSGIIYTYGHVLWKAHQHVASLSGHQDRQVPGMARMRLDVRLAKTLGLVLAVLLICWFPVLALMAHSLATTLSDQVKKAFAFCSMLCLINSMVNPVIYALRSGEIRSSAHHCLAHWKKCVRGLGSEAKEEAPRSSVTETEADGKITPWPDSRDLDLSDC
Protocol: as §3, §4, §5, §6, §7

AP-1 [4] = experiment: Luciferase reporter assay, AP-1, HeLa; type: cell-based, human; settings: Homo sapiens; for IC50: read-out: IC50, Ap-1 (PMA)
Protocol: as §2

NF-κB = experiment: Luciferase reporter assay, NF-κB, HeLa; type: cell-based; settings: Homo sapiens; for IC50: HeLa cells, inducer PMA, dash: not inhibited by more than 40% at 50 µmol/L
Protocol: as §2

AP-1 [5] = experiment: Luciferase reporter assay, AP-1, T98G; type: cell-based; settings: T98G cells; inducer PMA
Protocol: as §2

FoxO [6] = experiment: Luciferase reporter assay, FoxO, T98G; type: cell-based; settings: Homo sapiens; T98G cells; no inducer; dash: no activity detected; read-out: IC50, FoxO (None)
Protocol: as §2

[7] = AP1, read-out: Additive effect (in % inhibition): percentage of luciferase induction, AP-1 (PMA)

## C[C@H]1CC[C@H]2[C@H](C1)c1c(O)cc(/C=C/c3ccccc3O)cc1OC2(C)C [compound 3, machaeriol C]
[1]
  IC50 at 48 h: > 50 µg/mL
Wnt; HeLa, 3 alone at 10 µM, compared to pTK as control, read-out: Additive effect (in % inhibition): percentage of luciferase induction, Wnt (m-wnt3a)
  inhibition at 10 µM: 81%
Wnt
  IC50: 22 µM
CB1 receptor
  Percent displacement, CB1: 43.6%
FoxO [2]; HeLa, 3 alone at 10 µM, read-out: Additive effect (in % inhibition): percentage of luciferase induction, FoxO (None)
  inhibition at 10 µM: 120%
FoxO [2]
  IC50: > 50 µM
Notch; HeLa, 3 alone at 10 µM, compared to pTK as control, read-out: Additive effect (in % inhibition): percentage of luciferase induction, Notch- (PMA)
  inhibition at 10 µM: 115%
Notch
  IC50: > 50 µM
[3]
  IC50 at 48 h: > 50 µg/mL
CB2 receptor
  Ki: > 7.76 µM
  Percent displacement, CB2: 55.5%
AP-1 [4]; [7]
  inhibition at 10 µM: 61%
AP-1 [4]
  IC50: 12 µM
NF-κB; HeLa, 3 alone at 10 µM, compared to pTK as control, read-out: Additive effect (in % inhibition): percentage of luciferase induction, NF-κB (PMA)
  inhibition at 10 µM: 70%
NF-κB
  IC50: 11 µM

## C=C(C)[C@H]1CC[C@H](C)C[C@@H]1c1c(O)cc(/C=C/c2ccccc2O)cc1O [compound 6, machaeridiol B]
[1]
  IC50 at 48 h: 36 µg/mL (≈ 98.8 µM)
Wnt; HeLa, 6 alone at 2 µM, compared to pTK as control, read-out: Additive effect (in % inhibition): percentage of luciferase induction, Wnt (m-wnt3a)
  inhibition at 2 µM: 113%
Wnt
  IC50: 4.2 µM
CB1 receptor
  Percent displacement, CB1: 45.2%
AP-1 [5]
  IC50: 4.2 µM
FoxO [2]; HeLa, 6 alone at 2 µM, read-out: Additive effect (in % inhibition): percentage of luciferase induction, FoxO (None)
  inhibition at 2 µM: 105%
FoxO [2]
  IC50: > 50 µM
Notch; HeLa, 6 alone at 2 µM, compared to pTK as control, read-out: Additive effect (in % inhibition): percentage of luciferase induction, Notch- (PMA)
  inhibition at 2 µM: 103%
Notch
  IC50: 5.3 µM
FoxO [6]
  IC50: > 50 µM
[3]
  IC50 at 48 h: 38 µg/mL (≈ 104 µM)
CB2 receptor
  Percent displacement, CB2: 56.8%
CB2 receptor; * tested up to solubility limit, conc. at 33.3 μM and above precipitated, read-out: CB2 Ki ± SEM
  Ki: > 2.18 µM
AP-1 [4]; [7]
  inhibition at 2 µM: 70%
AP-1 [4]
  IC50: 5.9 µM
NF-κB; HeLa, 6 alone at 2 µM, compared to pTK as control, read-out: Additive effect (in % inhibition): percentage of luciferase induction, NF-κB (PMA)
  inhibition at 2 µM: 76%
NF-κB
  IC50: 0.5 µM
